# Experimental data published in patent US6770597B2, “Benzohydrazide derivatives as herbicides and desiccant compositions containing them” (Ishihara Sangyo Kaisha, Ltd., priority 2002, dated 2004).
# How the values were obtained:
# Assay type in all cases: in vivo
# [1] = system: barnyardgrass (Echinochloa crus-galli, ECHCG); assay: Greenhouse herbicide screen, post-emerge application, phytotoxicity rating; conditions: POST emergent, 14 days after application, scale 0-100
# Excerpt: (§1) A standard greenhouse herbicide activity screening system was used to evaluate the herbicidal efficacy and crop safety of these test compounds. Seven broadleaf weed species including redroot pigweed (Amaranthus retrofiexus, AMARE), velvetleaf (Abutilon theophrasti, ABUTH), sicklepod (Cassia obtusifolia, CASOB), ivyleaf morningglory (Ipomoea hederacea, IPOHE), lambsquarters (Chenopodium album, CHEAL), common ragweed (Ambrosia artemisiifolia L., AMBEL), and cocklebur (Xanthium strumarium, XANST) were used as test species. Four grass weed species including green foxtail (Setaria viridis, SETVI), barnyardgrass (Echinochloa crus-galli, ECHCG), johnsongrass (Sorghum halepense, SORHA), and large crabgrass (Digitaria sanguinalis, DIGSA) were also used. In addition, four crop species, field corn (Zea mays L., var. Dekalb 535, CORN), soybean (Glycine max L., var. Pella 86, SOY), upland rice (Oryza sp., var.Cocodrie, RICE) and wheat (Triticum aestivum L.) were included.
# (§2) All plants were grown in 10 cm square plastic pots which were filled with a sandy loam soil mix. For pre-emerge tests, seeds were planted one day prior to application of the test compounds. For post-emerge tests, seeds were planted 8-21 days prior to the test to allow emergence and good foliage development prior to application of the test substances. At the time of the post-emerge application, plants of all species were usually at the 2-3 leaf stage of development.
# (§3) All test compounds were dissolved in acetone and applied to the test units in a volume of 187 l/ha. Test materials were applied at rates ranging from 15 g ai/ha to 1000 g ai/ha using a track sprayer equipped with a TJ8001E even flow flat fan spray nozzle. Plants were arranged on a shelf so that the top of the canopy (post-emerge) or top of the soil surface (pre-emerge) was 40-45 cm below the nozzle. Pressurized air was used to force the test solution through the nozzle as it was mechanically advanced (via electrically driven chain drive) over the top of all test plants/pots. This application simulates a typical commercial field herbicide application.
# (§4) Pre-emergence tests were top watered immediately after treatment to incorporate the test materials, then routinely top-watered for normal growth. Post-emerge test units were always bottom-watered.
# (§5) At 14 days after application of the test materials, phytotoxicity ratings were recorded. A rating scale of 0-100 was used as previously described in Research Methods in Weed Science, 2nd edition, B. Truelove, Ed., Southern Weed Science Society, Auburn University, Auburn, Ala., 1977. Briefly, “0” corresponds to no damage and “100” corresponds to complete death of all plants in the test unit. This scale was used both to determine efficacy against weed species and damage to crop species. Herbicide activity data for various compounds of this invention, which are shown by compound No. in Tables 1-12, are shown in Tables 13 and 14.
# [2] = system: green foxtail (Setaria viridis, SETVI); assay: as above; conditions: POST emergent, 14 days after application, scale 0-100
# Excerpt: as §1, §2, §3, §4, §5
# [3] = system: velvetleaf (Abutilon theophrasti, ABUTH); assay: as above; conditions: POST emergent, 14 days after application, scale 0-100
# Excerpt: as §1, §2, §3, §4, §5
# [4] = system: redroot pigweed (Amaranthus retrofiexus, AMARE); assay: as above; conditions: POST emergent, 14 days after application
# Excerpt: as §1, §2, §3, §4, §5
# [5] = system: large crabgrass (Digitaria sanguinalis, DIGSA); assay: as above; conditions: POST emergent, 14 days after application, scale 0-100
# Excerpt: as §1, §2, §3, §4, §5
# [6] = system: common ragweed (Ambrosia artemisiifolia L., AMBEL); assay: as above; conditions: POST emergent, 14 days after application, scale 0-100
# Excerpt: as §1, §2, §3, §4, §5
# [7] = system: sicklepod (Cassia obtusifolia, CASOB); assay: as above; conditions: POST emergent, 14 days after application, scale 0-100
# Excerpt: as §1, §2, §3, §4, §5
# [8] = system: ivyleaf morningglory (Ipomoea hederacea, IPOHE); assay: as above; conditions: POST emergent, 14 days after application, scale 0-100
# Excerpt: as §1, §2, §3, §4, §5
# [9] = system: lambsquarters (Chenopodium album, CHEAL); assay: as above; conditions: POST emergent, 14 days after application, scale 0-100
# Excerpt: as §1, §2, §3, §4, §5
# [10] = system: cocklebur (Xanthium strumarium, XANST); assay: as above; conditions: POST emergent, 14 days after application, scale 0-100
# Excerpt: as §1, §2, §3, §4, §5
# [11] = system: johnsongrass (Sorghum halepense, SORHA); assay: as above; conditions: POST emergent, 14 days after application, scale 0-100
# Excerpt: as §1, §2, §3, §4, §5
# [12] = system: field corn (Zea mays L., var. Dekalb 535, CORN); assay: Greenhouse herbicide screen, post-emerge application, crop damage rating; conditions: POST emergent, 14 days after application, scale 0-100
# Excerpt: as §1, §2, §3, §4, §5
# [13] = system: upland rice (Oryza sp., var.Cocodrie, RICE); assay: as above; conditions: POST emergent, 14 days after application, scale 0-100
# Excerpt: as §1, §2, §3, §4, §5
# [14] = system: barnyardgrass (Echinochloa crus-galli, ECHCG); assay: Greenhouse herbicide screen, pre-emerge application, phytotoxicity rating; conditions: PRE emergent, 14 days after application, rating scale 0-100
# Excerpt: as §1, §2, §3, §4, §5
# [15] = system: green foxtail (Setaria viridis, SETVI); assay: as above; conditions: PRE emergent, 14 days after application, rating scale 0-100
# Excerpt: as §1, §2, §3, §4, §5
# [16] = system: velvetleaf (Abutilon theophrasti, ABUTH); assay: as above; conditions: PRE emergent, 14 days after application, rating scale 0-100
# Excerpt: as §1, §2, §3, §4, §5
# [17] = system: redroot pigweed (Amaranthus retrofiexus, AMARE); assay: as above; conditions: PRE emergent, 14 days after application, rating scale 0-100
# Excerpt: as §1, §2, §3, §4, §5
# [18] = system: large crabgrass (Digitaria sanguinalis, DIGSA); assay: as above; conditions: PRE emergent, 14 days after application, rating scale 0-100
# Excerpt: as §1, §2, §3, §4, §5
# [19] = system: common ragweed (Ambrosia artemisiifolia L., AMBEL); assay: as above; conditions: PRE emergent, 14 days after application, rating scale 0-100
# Excerpt: as §1, §2, §3, §4, §5
# [20] = system: sicklepod (Cassia obtusifolia, CASOB); assay: as above; conditions: PRE emergent, 14 days after application, rating scale 0-100
# Excerpt: as §1, §2, §3, §4, §5
# [21] = system: ivyleaf morningglory (Ipomoea hederacea, IPOHE); assay: as above; conditions: PRE emergent, 14 days after application, rating scale 0-100
# Excerpt: as §1, §2, §3, §4, §5
# [22] = system: lambsquarters (Chenopodium album, CHEAL); assay: as above; conditions: PRE emergent, 14 days after application, rating scale 0-100
# Excerpt: as §1, §2, §3, §4, §5
# [23] = system: cocklebur (Xanthium strumarium, XANST); assay: as above; conditions: PRE emergent, 14 days after application, rating scale 0-100
# Excerpt: as §1, §2, §3, §4, §5
# [24] = system: johnsongrass (Sorghum halepense, SORHA); assay: as above; conditions: PRE emergent, 14 days after application, rating scale 0-100
# Excerpt: as §1, §2, §3, §4, §5
# [25] = system: field corn (Zea mays L., var. Dekalb 535, CORN); assay: Greenhouse herbicide screen, pre-emerge application, crop damage rating; conditions: PRE emergent, 14 days after application, rating scale 0-100
# Excerpt: as §1, §2, §3, §4, §5
# [26] = system: upland rice (Oryza sp., var.Cocodrie, RICE); assay: as above; conditions: PRE emergent, 14 days after application, rating scale 0-100
# Excerpt: as §1, §2, §3, §4, §5
smiles,measurement,setting,value
CN(C)NC(=O)c1cc(-n2c(=O)cc(C(F)(F)F)n(C)c2=O)ccc1Cl [Compound 1-4],phytotoxicity rating ECHCO,[1]; 63 g ai/ha,65
same,phytotoxicity rating ECHCO,[1]; 250 g ai/ha,95
same,phytotoxicity rating SETVI,[2]; 63 g ai/ha,65
same,phytotoxicity rating SETVI,[2]; 250 g ai/ha,75
same,phytotoxicity rating ABUTH,[3]; 63 g ai/ha,100
same,phytotoxicity rating ABUTH,[3]; 250 g ai/ha,100
same,phytotoxicity rating AMARE,"[4]; 63 g ai/ha, scale 0-100 (0 no damage, 100 complete death)",100
same,phytotoxicity rating AMARE,"[4]; 250 g ai/ha, scale 0-100",100
same,phytotoxicity rating DIGSA,[5]; 63 g ai/ha,35
same,phytotoxicity rating DIGSA,[5]; 250 g ai/ha,55
same,phytotoxicity rating AMBEL,[6]; 63 g ai/ha,80
same,phytotoxicity rating AMBEL,[6]; 250 g ai/ha,100
same,phytotoxicity rating CASOB,[7]; 63 g ai/ha,70
same,phytotoxicity rating CASOB,[7]; 250 g ai/ha,80
same,phytotoxicity rating IPOHE,[8]; 63 g ai/ha,100
same,phytotoxicity rating IPOHE,[8]; 250 g ai/ha,100
same,phytotoxicity rating CHEAL,[9]; 63 g ai/ha,99
same,phytotoxicity rating CHEAL,[9]; 250 g ai/ha,100
same,phytotoxicity rating XANST,[10]; 63 g ai/ha,100
same,phytotoxicity rating XANST,[10]; 250 g ai/ha,100
same,phytotoxicity rating SORHA,[11]; 63 g ai/ha,50
same,phytotoxicity rating SORHA,[11]; 250 g ai/ha,80
same,crop damage rating CORN,[12]; 63 g ai/ha,65
same,crop damage rating CORN,[12]; 250 g ai/ha,99
same,crop damage rating RICE,[13]; 63 g ai/ha,10
same,crop damage rating RICE,[13]; 250 g ai/ha,65
same,phytotoxicity rating ECHCG,[14]; 63 g ai/ha,0
same,phytotoxicity rating ECHCG,[14]; 250 g ai/ha,40
same,phytotoxicity rating SETVI,[15]; 63 g ai/ha,0
same,phytotoxicity rating SETVI,[15]; 250 g ai/ha,35
same,phytotoxicity rating ABUTH,[16]; 63 g ai/ha,30
same,phytotoxicity rating ABUTH,[16]; 250 g ai/ha,99
same,phytotoxicity rating AMARE,[17]; 63 g ai/ha,40
same,phytotoxicity rating AMARE,[17]; 250 g ai/ha,95
same,phytotoxicity rating DIGSA,[18]; 63 g ai/ha,0
same,phytotoxicity rating DIGSA,[18]; 250 g ai/ha,60
same,phytotoxicity rating AMBEL,[19]; 63 g ai/ha,0
same,phytotoxicity rating AMBEL,[19]; 250 g ai/ha,40
same,phytotoxicity rating CASOB,[20]; 63 g ai/ha,0
same,phytotoxicity rating CASOB,[20]; 250 g ai/ha,90
same,phytotoxicity rating IPOHE,[21]; 63 g ai/ha,75
same,phytotoxicity rating IPOHE,[21]; 250 g ai/ha,100
same,phytotoxicity rating CHEAL,[22]; 63 g ai/ha,15
same,phytotoxicity rating CHEAL,[22]; 250 g ai/ha,100
same,phytotoxicity rating XANST,[23]; 63 g ai/ha,0
same,phytotoxicity rating XANST,[23]; 250 g ai/ha,60
same,phytotoxicity rating SORHA,[24]; 63 g ai/ha,0
same,phytotoxicity rating SORHA,[24]; 250 g ai/ha,35
same,crop damage rating CORN,[25]; 63 g ai/ha,35
same,crop damage rating CORN,[25]; 250 g ai/ha,75
same,crop damage rating RICE,[26]; 63 g ai/ha,0
same,crop damage rating RICE,[26]; 250 g ai/ha,8
